Assay: xn = mol fraction of the nth substance listed
Settings: 100 kPa, Liquid, Vibrating tube method, x2 = 0.3333

NC(N)=O [urea] + C[N+](C)(C)CCO.[Cl-]
Settings	mass density [kg/m3]
293.15 K	1199.42
298.15 K	1196.68
303.15 K	1193.96
308.15 K	1191.19
313.15 K	1188.52
318.15 K	1185.87
323.15 K	1183.2
328.15 K	1180.53
333.15 K	1177.87
338.15 K	1175.22

Reference: the NIST ThermoML archive (doi:10.1021/acs.jced.9b00145)
